Tests used:
Conditions in all cases: 72 h
[1] = system: Calu-3; experiment: cell viability relative to DMSO; higher = less toxic
[2] = system: Vero E6; experiment: as above
[3] = system: U2OS; experiment: as above
[4] = system: Calu-3; experiment: drug sensitivity score (DSS) for viability; higher = more toxic; extreme values may be limits of the assay
[5] = system: Vero E6; experiment: as above
[6] = system: U2OS; experiment: as above
[7] = system: Calu-3; experiment: relative viability EC50 (midpoint between 100% and the lowest measured viability); higher = less toxic
[8] = system: Vero E6; experiment: as above
[9] = system: U2OS; experiment: as above
[10] = system: Caco-2; experiment: cell viability relative to DMSO; higher = less toxic
[11] = system: HepG2; experiment: as above
[12] = system: Caco-2; experiment: drug sensitivity score (DSS) for viability; higher = more toxic; extreme values may be limits of the assay
[13] = system: HepG2; experiment: as above
[14] = system: Caco-2; experiment: relative viability EC50 (midpoint between 100% and the lowest measured viability); higher = less toxic
[15] = system: HepG2; experiment: as above

| Compound | cell viability ([1]; 1 nM) [%] | cell viability ([1]; 10 nM) [%] | cell viability ([1]; 100 nM) [%] | cell viability ([1]; 1000 nM) [%] | cell viability ([1]; 10000 nM) [%] | cell viability ([2]; 1 nM) [%] | cell viability ([2]; 10 nM) [%] | cell viability ([2]; 100 nM) [%] | cell viability ([2]; 1000 nM) [%] | cell viability ([2]; 10000 nM) [%] | cell viability ([3]; 1 nM) [%] | cell viability ([3]; 10 nM) [%] | cell viability ([3]; 100 nM) [%] | cell viability ([3]; 1000 nM) [%] | cell viability ([3]; 10000 nM) [%] | drug sensitivity score [4] | drug sensitivity score [5] | drug sensitivity score [6] | relative viability EC50 [7] [µM] | relative viability EC50 [8] [µM] | relative viability EC50 [9] [µM] | cell viability ([10]; 1 nM) [%] | cell viability ([10]; 10 nM) [%] | cell viability ([10]; 100 nM) [%] | cell viability ([10]; 1000 nM) [%] | cell viability ([10]; 10000 nM) [%] | cell viability ([11]; 1 nM) [%] | cell viability ([11]; 10 nM) [%] | cell viability ([11]; 100 nM) [%] | cell viability ([11]; 1000 nM) [%] | cell viability ([11]; 10000 nM) [%] | drug sensitivity score [12] | drug sensitivity score [13] | relative viability EC50 [14] [µM] | relative viability EC50 [15] [µM] |
| --- | --- | --- | --- | --- | --- | --- | --- | --- | --- | --- | --- | --- | --- | --- | --- | --- | --- | --- | --- | --- | --- | --- | --- | --- | --- | --- | --- | --- | --- | --- | --- | --- | --- | --- | --- |
| Cn1c(=O)c2[nH]cnc2n(C)c1=O [aminophylline] | 99.2 | 114 | 100 | 108 | 114 | 99.5 | 100 | 94.9 | 93.1 | 112 | 99.1 | 98.9 | 94.9 | 101 | 103 | 0 | 0 | 0 | > 10 | > 10 | > 10 | – | – | – | – | – | – | – | – | – | – | – | – | – | – |
| CN1C[C@H](C(=O)N[C@]2(C)O[C@@]3(O)[C@@H]4CCCN4C(=O)[C@H](Cc4ccccc4)N3C2=O)C[C@@H]2c3cccc4[nH]cc(c34)C[C@H]21 [dihydroergotamine] | 102 | 96.9 | 96.3 | 95.1 | 114 | – | – | – | – | – | – | – | – | – | – | 0 | – | – | > 10 | – | – | 102 | 98.3 | 108 | 111 | 99.7 | 109 | 113 | 105 | 109 | 97.3 | 0 | 0 | > 10 | > 10 |
| COc1cc([C@@H]2c3cc4c(cc3[C@@H](O[C@@H]3O[C@@H]5CO[C@@H](C)O[C@H]5[C@H](O)[C@H]3O)[C@H]3COC(=O)[C@H]23)OCO4)cc(OC)c1O [etoposide] | 83.1 | 92.5 | 90.4 | 81.1 | 40.7 | 104 | 105 | 103 | 98.7 | 80.2 | 100 | 104 | 99.9 | 94.5 | 46.1 | 5.3 | 0.7 | 3.8 | 1.52 | > 10 | 2.32 | 93.5 | 97.1 | 92.2 | 97.7 | 54.2 | 111 | 85.2 | 96.3 | 65.6 | 43.1 | 2.7 | 7.2 | – | 0.701 |
| CCCCCCOc1ccccc1C(N)=O [exalamide] | 106 | 115 | 107 | 98.3 | 113 | 110 | 105 | 102 | 105 | 86.9 | 95.6 | 92.7 | 101 | 93.1 | 94.3 | 0 | 0 | 0 | > 10 | > 10 | > 10 | – | – | – | – | – | 110 | 96.1 | 95.9 | 109 | 90 | – | 0 | – | > 10 |
| CC1=C(/C=C/C(C)=C/C=C/C(C)=C/C(=O)Nc2ccc(O)cc2)C(C)(C)CCC1 [fenretinide] | 98.9 | 99.9 | 93.3 | 89.5 | 84 | 95 | 98.9 | 101 | 101 | 91.1 | 97.7 | 97.8 | 99.5 | 104 | 86.8 | 0.9 | 0 | 0.1 | > 10 | > 10 | > 10 | 98.7 | 103 | 100 | 93.2 | 67.9 | 99.6 | 92.6 | 99.1 | 91.3 | 80 | 2.5 | 1.2 | – | > 10 |
| NCC1(CC(=O)O)CCCCC1 [gabapentin] | 120 | 118 | 100 | 110 | 94.4 | 96 | 93.6 | 89.3 | 94.3 | 92.5 | – | – | – | – | – | 0 | 0 | – | > 10 | > 10 | – | – | – | – | – | – | 102 | 97.6 | 94.2 | 89.3 | 108 | – | 0 | – | > 10 |
| Nc1ccn([C@@H]2O[C@H](CO)[C@@H](O)C2(F)F)c(=O)n1 [gemcitabine] | 97.5 | 106 | 86.5 | 63.9 | 40.8 | 102 | 102 | 62.3 | 59.4 | 61.4 | 97 | 105 | 72.9 | 67.8 | 74.1 | 8.2 | 11.9 | 8.6 | 0.529 | – | – | 100 | 89 | 72.5 | 66.2 | 72 | 99.5 | 71.2 | 38.3 | 38.9 | 40.3 | 9.9 | 23.1 | – | 0.0105 |
| CCCCCCCCCCCCCC(=O)OC(C)C [isopropyl-myristate] | 98.3 | 105 | 101 | 105 | 94.1 | 101 | 104 | 91.5 | 96.8 | 96.4 | – | – | – | – | – | 0 | 0 | – | > 10 | > 10 | – | 111 | 97 | 110 | 96.9 | 98.6 | – | – | – | – | – | 0 | – | > 10 | – |
| CNC(=O)[C@@H](NC(=O)[C@H](CC(C)C)[C@H](O)C(=O)NO)C(C)(C)C [marimastat] | 96.2 | 102 | 86.4 | 87.4 | 81.3 | 108 | 103 | 100 | 104 | 90.7 | 98.7 | 100 | 92.9 | 95.9 | 91.5 | 3.6 | 0 | 0 | > 10 | > 10 | > 10 | 79.5 | 106 | 89.9 | 99.9 | 70.5 | 103 | 99.7 | 121 | 106 | 113 | 1.3 | 0 | – | > 10 |
| O=[N+]([O-])c1cncn1CCN1CCOCC1 [nimorazole] | 102 | 105 | 94.6 | 108 | 93.9 | – | – | – | – | – | – | – | – | – | – | 0 | – | – | > 10 | – | – | 102 | 107 | 94.8 | 106 | 96.3 | 118 | 112 | 97.2 | 98.7 | 117 | 0 | 0 | > 10 | > 10 |
| CC(=O)c1c(C)c2cnc(Nc3ccc(N4CCNCC4)cn3)nc2n(C2CCCC2)c1=O [palbociclib] | 101 | 90.6 | 98.4 | 85.8 | 92.8 | 97.9 | 101 | 96.4 | 77.3 | 26.9 | 104 | 94.8 | 98.8 | 92.3 | 57.3 | 0 | 7.2 | 3.4 | > 10 | 1.4 | – | 97.1 | 90.6 | 95.6 | 86.2 | 50.4 | 92.5 | 88.5 | 80.7 | 65.9 | 29.4 | 4.5 | 9.7 | – | 0.525 |
| CC[C@@H]([C@H](C)O)n1ncn(-c2ccc(N3CCN(c4ccc(OC[C@@H]5CO[C@@](Cn6cncn6)(c6ccc(F)cc6F)C5)cc4)CC3)cc2)c1=O [posaconazole] | 106 | 103 | 91.5 | 92.9 | 93 | 98.8 | 106 | 93.4 | 92.8 | 43.2 | 92.9 | 101 | 93.7 | 90 | 93.8 | 0 | 4.3 | 0 | > 10 | 2.13 | > 10 | 97.6 | 99 | 94.3 | 86.7 | 70.2 | 97.8 | 86.9 | 105 | 96.6 | 27.5 | 2.4 | 4.5 | – | 2.81 |
| O=C(C=Cc1ccccc1)NC(NC(=S)Nc1ccc(Cl)cc1)C(Cl)(Cl)Cl (stereo unspecified) [sal003] | 106 | 99.8 | 95.1 | 108 | 95.6 | 94.9 | 102 | 100 | 100 | 81.2 | 98.8 | 94.6 | 98.2 | 93.7 | 91.5 | 0 | 0.5 | 0 | > 10 | > 10 | > 10 | 97.6 | 96 | 101 | 91.1 | 74.1 | 104 | 102 | 96.2 | 99 | 19.1 | 2.2 | 4.6 | – | 3.08 |
| O=C1NC(O)CCN1[C@@H]1O[C@H](CO)[C@@H](O)[C@H]1O (stereo partly specified) [tetrahydrouridine] | 108 | 102 | 103 | 101 | 96.2 | – | – | – | – | – | – | – | – | – | – | 0 | – | – | > 10 | – | – | 101 | 100 | 95.2 | 102 | 99.2 | 112 | 101 | 98.1 | 99.1 | 110 | 0 | 0 | > 10 | > 10 |
| CN1CCN(CC/C=C2/c3ccccc3Sc3ccc(S(=O)(=O)N(C)C)cc32)CC1 [thiothixene] | 96.4 | 102 | 119 | 104 | 77.6 | 99.5 | 108 | 97.2 | 91.8 | 88.1 | 95.7 | 97 | 95.6 | 99.4 | 84.5 | 0.6 | 0.2 | 0.3 | > 10 | > 10 | > 10 | 107 | 104 | 103 | 97.5 | 71.4 | 94.2 | 102 | 104 | 87.6 | 73.3 | 1.6 | 2.6 | – | – |
| C[C@H](NC(=O)/C(C#N)=C/c1ccc(O)c(O)c1)c1ccccc1 [tyrphostin-AG-835] | 89.4 | 96.8 | 109 | 97.2 | 98.2 | 98 | 90.4 | 98.5 | 89.6 | 89.6 | 97.2 | 98.5 | 98.3 | 98.3 | 91 | 0 | 0 | 0 | > 10 | > 10 | > 10 | 92.2 | 97.2 | 90.5 | 93.7 | 74.6 | 109 | 90.9 | 106 | 97.3 | 78.9 | 1.5 | 1 | – | > 10 |

Source: the supplement of paper PMC13380429
